Experimental data reported in ChEMBL document CHEMBL3045970, “Development of a New Acaricide, Fenpyroximate” (J Pestic Sci, 1995).

Experiment: Half life in diluvial and volcanic ash soils under upland laboratory conditions
Assay type: physicochemical

Q: For Cc1nn(C)c(Oc2ccccc2)c1/C=N/OCc1ccc(C(=O)OC(C)(C)C)cc1 [FENPYROXYMATE], which t1/2 is on record?
A: The t1/2 was 26.3 days.
